Measured values as given in patent US20040142819A1, “Compositions and methods for synergistic weed control” (priority 2003, published 2004).

How the values were obtained:
[1] = tested on: SORHAZ (johnsongrass, approximate height 3 feet); assay: Field plot weed control, visual % control, rhizome johnsongrass; format: in vivo
Procedure: (§1) In this evaluation, seedling weeds of rhizome johnsongrass and white clover were grown in a field plot until they reached a height of 3 feet (0.9 m) and 3 inches (8 cm) respectively. The plants were then sprayed with an aqueous solution or emulsification of the test compounds at various rates as indicated in Table II. The control % (on a visual basis) is shown in Table II for 7 and 16 days after treatment.
(§2) Sethoxydim is formulated as a 1.5 lb ai/g (0.68 kg ai/g) emulsification.
(§3) Imazapyr is formulated as a 4.0 lb ai/g (1.8 kg ai/g) aqueous solution.
SORHAZ is johnsongrass with an approximate height of 3 feet (0.9 m).

[2] = tested on: TRFRE (white clover, approximate height 3 inches); assay: Field plot weed control, visual % control, white clover; format: in vivo
Procedure: as §1, §2, §3
TRFRE is white clover with an approximate height of 3 inches (8 cm).

[3] = tested on: Sorghum halepense (Johnsongrass); assay: Greenhouse post-emergence weed control of seedling johnsongrass, visual % control, Colby expected response
Procedure: In this evaluation, seedling johnsongrass was grown in 9-cm diameter styrofoam cups in a soil medium of a 1:1 mixture of top-soil from a Freestone fine sandy loam (fine-loamy, siliceous, thermic Aquic Paleudalf) and masonry sand. The temperature in the greenhouse was maintained at 31 ″5° C. for several weeks until the plants were approximately 5-inch (13 cm) leaf seedlings. Said plants were then sprayed with an aqueous solution of the test compounds at the rates indicated in Tables Ia and Ib as measured in lbs of herbicide per acre. Each treatment was replicated 4 times and the average control % (on a visual basis) is shown in Table Ia for 10 days after treatment and Table Ib for 20 days after treatment.
The methods described by Colby in “Calculating Synergistic and Antagonistic Responses of Herbicide Combinations,” 15 Weeds 20-22 (1967), were used to calculate interactions of herbicide tank mixtures. The expected response for tank mixtures was calculated by taking the product of the recorded values from the herbicides applied alone and dividing by 100.

[4] = Treatment 2: graminicide 0.20 lb/A (0.22 kg/ha), imidazolinone 0
[5] = Treatment 3: graminicide 0, imidazolinone 0.008 lb/A (0.009 kg/ha)
[6] = 10 Days After Treatment, Sethoxydim 0 lb/A, imidazolinone 0.008 lb/A (0.009 kg/ha)
[7] = 10 Days After Treatment, Sethoxydim 0 lb/A, imidazolinone 0.016 lb/A (0.018 kg/ha)
[8] = 10 Days After Treatment, Sethoxydim 0 lb/A, imidazolinone 0.032 lb/A (0.036 kg/ha)
[9] = 20 Days After Treatment, Sethoxydim 0 lb/A, imidazolinone 0.008 lb/A (0.009 kg/ha)
[10] = 20 Days After Treatment, Sethoxydim 0 lb/A, imidazolinone 0.016 lb/A (0.018 kg/ha)
[11] = 20 Days After Treatment, Sethoxydim 0 lb/A, imidazolinone 0.032 lb/A (0.036 kg/ha)

CCCC(=NOCC)C1=C(O)CC(CC(C)SCC)CC1=O (stereo not shown) [Sethoxydim, 2-[1-(ethoxyimino)butyl]-5-[2-(ethylthio)propyl]-3-hydroxy-2-cyclohexen-1-one]
SORHAZ 7 DAT Control (%) [1, 4]: 26.7%
SORHAZ 16 DAT Control (%) [1, 4]: 38.3%
TRFRE 7 DAT Control (%) [2, 4]: 0%
TRFRE 16 DAT Control (%) [2, 4]: 0%
Actual Control (%) ([3]; 10 Days After Treatment, Sethoxydim 0.1 lb/A (0.1 kg/ha), no imidazolinone): 20%
Actual Control (%) ([3]; 10 Days After Treatment, Sethoxydim 0.2 lb/A (0.2 kg/ha), no imidazolinone): 87.5%
Actual Control (%) ([3]; 20 Days After Treatment, Sethoxydim 0.1 lb/A (0.1 kg/ha), no imidazolinone): 30%
Actual Control (%) ([3]; 20 Days After Treatment, Sethoxydim 0.2 lb/A (0.2 kg/ha), no imidazolinone): 95%

CC(C)C1(C)N=C(c2ncccc2C(=O)O)NC1=O (stereo not shown) [imazapyr, (″)-2-[4,5-dihydro-4-methyl-4-(1-methylethyl)-5-oxo-1H-imidazol-2-yl]-3-pyridinecar-boxylic acid]
SORHAZ 7 DAT Control (%) [1, 5]: 0%
SORHAZ 16 DAT Control (%) [1, 5]: 0%
TRFRE 7 DAT Control (%) [2, 5]: 0%
TRFRE 16 DAT Control (%) [2, 5]: 0%

COCc1cnc(C2=NC(C)(C(C)C)C(=O)N2)c(C(=O)O)c1 (stereo not shown) [imazamox, 2-[4,5-dihydro-4-methyl-4-(1-methylethyl)-5-oxo-1H-imidazol-2-yl]-5(methoxymethyl)-3-pyridinecarboxylic acid]
Actual Control (%) ([3]; 10 Days After Treatment, Sethoxydim 0 lb/A, imidazolinone 0.004 lb/A (0.004 kg/ha)): 12.5%
Actual Control (%) [3, 6]: 12.5%
Actual Control (%) [3, 7]: 10%
Actual Control (%) [3, 8]: 10%
Actual Control (%) ([3]; 20 Days After Treatment, Sethoxydim 0 lb/A, imidazolinone 0.004 lb/A (0.004 kg/ha)): 30%
Actual Control (%) [3, 9]: 40%
Actual Control (%) [3, 10]: 40%
Actual Control (%) [3, 11]: 50%

CC(C)C1(C)N=C(c2nc3ccccc3cc2C(=O)O)NC1=O (stereo not shown) [imazaquin, 2-(4,5-dihydro-4-methyl-4-(1-methyl-ethyl)-5-oxo-1H-imidazol-2-yl]-3-quinolinecarboxylic acid]
Actual Control (%) [3, 6]: 0%
Actual Control (%) [3, 7]: 0%
Actual Control (%) [3, 8]: 0%
Actual Control (%) ([3]; 10 Days After Treatment, Sethoxydim 0 lb/A, imidazolinone 0.063 lb/A (0.070 kg/ha)): 0%
Actual Control (%) [3, 9]: 0%
Actual Control (%) [3, 10]: 2.5%
Actual Control (%) [3, 11]: 3.8%
Actual Control (%) ([3]; 20 Days After Treatment, Sethoxydim 0 lb/A, imidazolinone 0.063 lb/A (0.070 kg/ha)): 5%
